Target: T1, STK4 (MST1) (Homo sapiens, UniProt Q13043)
T1 construct: purchased Thermo Fisher Scientific (Life Technologies) SelectScreen
Assay: SelectScreen Z'LYTE
Assay type: biochemical
How it was run: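 SelectScreen broad panel; activity (Z'LYTE, Adapta) plus binding formats. ATP: Km app for CSF1R Z'LYTE; 10 for CAMK1 Adapta. Readout = % per kinase.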

T1 sequence (Q13043 whole entry): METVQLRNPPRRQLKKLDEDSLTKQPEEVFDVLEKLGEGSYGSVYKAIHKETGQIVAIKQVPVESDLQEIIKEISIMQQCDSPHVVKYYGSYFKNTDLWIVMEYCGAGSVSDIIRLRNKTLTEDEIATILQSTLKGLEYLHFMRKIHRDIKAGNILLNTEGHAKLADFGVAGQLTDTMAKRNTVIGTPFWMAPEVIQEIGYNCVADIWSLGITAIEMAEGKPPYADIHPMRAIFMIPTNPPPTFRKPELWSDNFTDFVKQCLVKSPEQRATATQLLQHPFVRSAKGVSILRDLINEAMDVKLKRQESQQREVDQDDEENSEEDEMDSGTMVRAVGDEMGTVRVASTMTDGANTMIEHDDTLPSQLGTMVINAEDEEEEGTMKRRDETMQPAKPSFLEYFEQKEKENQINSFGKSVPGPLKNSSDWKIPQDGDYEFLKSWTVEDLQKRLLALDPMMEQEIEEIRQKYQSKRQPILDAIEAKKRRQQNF

CN(C(=O)CN1CCOCC1)c1ccc2sc3c(-c4cccc5c(=O)cc(N6CC7CCC(C6)O7)oc45)cccc3c2c1 [NU5455]
inhibition at 1 µM: -4.4%
